Data: ChEMBL document CHEMBL1201862, “PubChem BioAssay data set” (2004)
Values belong to the compound of their own block, whether it stands above or below them. Active and inactive are the calls of the source.

Columns and labels:
[1] = target: T1, E3 ubiquitin-protein ligase XIAP (Homo sapiens, UniProt P98170); test: small molecules displacing peptide from XIAP – biochemical, IAP family, fluorescence polarization (AID 1018); type: functional
[2] = target: T1, E3 ubiquitin-protein ligase XIAP; test: Counter Screen using XIAP-Bir3 for Chemical Antagonists of Bir1/2 domains of IAP-family anti-apoptotic proteins. [Related pubchem assays (depositor defined):AID1018, AID1449, AID1514, AID1638, AID1749, AID1750, AID488957, AID488963]
[3] = blockers of HIV-1 envelope-mediated cell-cell fusion – cherry-pick, dose response (AID 652057); type: functional, cell-based
[4] = HIV-1 AD8 envelope cell-cell fusion blockers – cherry-pick, dose response (AID 652062); type: functional, cell-based;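 also: luciferase signal from cell-cell fusion driven by HIV-1 clade B AD8 Env; potency is for inhibitors of fusion seen as a drop in luminescence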
[5] = off-target signal loss in HeLa-CEM21 co-culture – HeLa F-luc CTL cells, cherry-picked, counter-screen for HIV-1 Env fusion inhibitor project, dose response (AID 652040); type: functional, cell-based;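 also: potency for signal decrease marking cytotoxic or nonspecific inhibition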
[6] = tested on: HEK293; test: cells; conditions: Homo sapiens
[7] = blockers of HIV-1 ZM109 envelope-driven cell-cell fusion – HeLa effector, CEM target cells, luciferase, cherry-pick, dose response (AID 652058); type: functional, cell-based;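 also: luciferase signal from HIV-1 Env mediated cell-cell fusion of effector and target cells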
[8] = tested on: HEK293; test: cells; conditions: Homo sapiens; remark: listed apart in the source
[9] = target: T2, Tyrosine-protein phosphatase non-receptor type 22 (Homo sapiens, UniProt Q9Y2R2); type: functional
T2 sequence (Q9Y2R2 whole entry): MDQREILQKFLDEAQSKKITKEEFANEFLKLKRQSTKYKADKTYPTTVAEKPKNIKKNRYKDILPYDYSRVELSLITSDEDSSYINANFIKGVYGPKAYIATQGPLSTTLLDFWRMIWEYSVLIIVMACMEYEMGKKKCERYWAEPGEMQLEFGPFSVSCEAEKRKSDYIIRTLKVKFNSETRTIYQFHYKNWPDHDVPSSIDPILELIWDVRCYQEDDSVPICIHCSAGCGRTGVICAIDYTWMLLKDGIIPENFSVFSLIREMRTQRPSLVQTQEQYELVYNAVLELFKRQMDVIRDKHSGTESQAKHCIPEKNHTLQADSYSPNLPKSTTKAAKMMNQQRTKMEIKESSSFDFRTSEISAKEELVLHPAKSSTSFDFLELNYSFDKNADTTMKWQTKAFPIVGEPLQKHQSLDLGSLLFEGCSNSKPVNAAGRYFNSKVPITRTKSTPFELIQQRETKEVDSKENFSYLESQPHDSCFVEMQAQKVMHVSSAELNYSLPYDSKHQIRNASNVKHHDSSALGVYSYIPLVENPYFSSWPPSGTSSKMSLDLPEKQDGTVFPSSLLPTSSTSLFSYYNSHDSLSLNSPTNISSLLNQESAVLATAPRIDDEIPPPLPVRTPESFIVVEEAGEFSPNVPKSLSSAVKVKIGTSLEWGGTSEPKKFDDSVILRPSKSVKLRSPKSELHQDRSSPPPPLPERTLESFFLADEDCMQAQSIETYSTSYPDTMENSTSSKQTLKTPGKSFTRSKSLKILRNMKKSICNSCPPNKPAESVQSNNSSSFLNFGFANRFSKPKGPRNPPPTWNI

[10] = target: T2, Tyrosine-protein phosphatase non-receptor type 22; type: functional; remark: listed apart in the source
[11] = target: T3, Tyrosine-protein phosphatase non-receptor type 7 (Homo sapiens, UniProt P35236); type: functional
T3 sequence (P35236 whole entry): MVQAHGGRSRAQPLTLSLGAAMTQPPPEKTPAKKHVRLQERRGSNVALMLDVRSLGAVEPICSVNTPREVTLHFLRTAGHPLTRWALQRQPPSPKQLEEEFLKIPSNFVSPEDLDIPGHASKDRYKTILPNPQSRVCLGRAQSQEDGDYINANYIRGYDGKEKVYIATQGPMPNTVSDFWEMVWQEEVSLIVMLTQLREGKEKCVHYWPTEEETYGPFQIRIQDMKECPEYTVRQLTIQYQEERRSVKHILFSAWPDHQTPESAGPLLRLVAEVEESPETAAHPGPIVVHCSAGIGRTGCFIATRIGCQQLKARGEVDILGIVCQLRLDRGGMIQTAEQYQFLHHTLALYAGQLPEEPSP

[12] = target: T4, Nucleotide-binding oligomerization domain-containing protein 2 (Homo sapiens, UniProt Q9HC29); test: PubChem AID 2334; type: functional
T4 sequence (Q9HC29 whole entry, the tested form may be a part): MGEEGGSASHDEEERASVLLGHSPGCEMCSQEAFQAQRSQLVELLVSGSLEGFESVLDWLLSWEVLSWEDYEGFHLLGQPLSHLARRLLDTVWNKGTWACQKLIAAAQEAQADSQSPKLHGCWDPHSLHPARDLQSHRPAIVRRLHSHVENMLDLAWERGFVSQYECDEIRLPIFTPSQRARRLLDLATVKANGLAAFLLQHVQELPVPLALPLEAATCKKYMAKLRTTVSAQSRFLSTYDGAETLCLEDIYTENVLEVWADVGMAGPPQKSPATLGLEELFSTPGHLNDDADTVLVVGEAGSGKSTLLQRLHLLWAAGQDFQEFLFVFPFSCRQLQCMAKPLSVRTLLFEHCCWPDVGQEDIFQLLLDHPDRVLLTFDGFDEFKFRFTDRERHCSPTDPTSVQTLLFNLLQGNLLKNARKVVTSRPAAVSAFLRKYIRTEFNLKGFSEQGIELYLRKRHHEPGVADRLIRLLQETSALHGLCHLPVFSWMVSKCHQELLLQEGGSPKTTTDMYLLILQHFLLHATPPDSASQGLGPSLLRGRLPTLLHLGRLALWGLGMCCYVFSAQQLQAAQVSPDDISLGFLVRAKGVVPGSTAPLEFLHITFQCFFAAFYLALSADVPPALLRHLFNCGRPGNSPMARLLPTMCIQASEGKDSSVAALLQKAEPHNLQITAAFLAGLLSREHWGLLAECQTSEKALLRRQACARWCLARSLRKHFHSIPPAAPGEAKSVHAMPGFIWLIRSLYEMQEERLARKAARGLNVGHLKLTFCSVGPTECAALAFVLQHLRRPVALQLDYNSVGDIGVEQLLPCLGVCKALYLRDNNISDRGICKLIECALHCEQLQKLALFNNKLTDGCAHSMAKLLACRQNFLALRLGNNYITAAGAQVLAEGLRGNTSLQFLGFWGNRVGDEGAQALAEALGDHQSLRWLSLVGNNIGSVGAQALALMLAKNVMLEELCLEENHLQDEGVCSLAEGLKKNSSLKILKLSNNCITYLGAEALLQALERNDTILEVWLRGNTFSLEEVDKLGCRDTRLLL

[13] = target: Nucleotide-binding oligomerization domain-containing protein 1 (Homo sapiens, UniProt Q9Y239); test: blockers of NOD1 pathway activity – revised, SAR follow-up (AID 2333); type: functional
Nucleotide-binding oligomerization domain-containing protein 1, sequence (Q9Y239 whole entry, the tested form may be a part): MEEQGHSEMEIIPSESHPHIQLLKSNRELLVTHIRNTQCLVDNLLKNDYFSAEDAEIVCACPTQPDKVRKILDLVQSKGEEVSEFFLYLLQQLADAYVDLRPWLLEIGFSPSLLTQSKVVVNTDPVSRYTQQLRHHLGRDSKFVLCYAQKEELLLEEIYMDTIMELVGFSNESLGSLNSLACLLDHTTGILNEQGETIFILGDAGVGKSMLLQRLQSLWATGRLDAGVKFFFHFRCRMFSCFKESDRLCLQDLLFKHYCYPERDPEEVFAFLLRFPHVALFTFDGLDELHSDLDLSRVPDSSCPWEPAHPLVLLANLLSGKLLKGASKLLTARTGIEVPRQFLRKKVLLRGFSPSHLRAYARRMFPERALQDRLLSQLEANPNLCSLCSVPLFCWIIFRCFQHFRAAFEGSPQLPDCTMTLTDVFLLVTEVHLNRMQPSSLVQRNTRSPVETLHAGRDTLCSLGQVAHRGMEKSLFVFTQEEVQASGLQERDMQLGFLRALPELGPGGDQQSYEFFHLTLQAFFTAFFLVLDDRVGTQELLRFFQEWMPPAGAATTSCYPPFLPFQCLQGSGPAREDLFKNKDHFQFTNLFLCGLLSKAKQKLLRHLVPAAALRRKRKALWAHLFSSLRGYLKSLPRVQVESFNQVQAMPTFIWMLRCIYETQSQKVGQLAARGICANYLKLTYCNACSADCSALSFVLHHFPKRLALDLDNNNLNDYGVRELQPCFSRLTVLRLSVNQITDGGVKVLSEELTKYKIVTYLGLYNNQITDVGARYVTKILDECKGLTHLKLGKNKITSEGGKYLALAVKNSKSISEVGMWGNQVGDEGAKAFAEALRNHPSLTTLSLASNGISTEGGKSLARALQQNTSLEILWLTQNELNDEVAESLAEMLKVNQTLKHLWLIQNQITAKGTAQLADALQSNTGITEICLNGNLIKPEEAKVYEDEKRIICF

[14] = tested on: HEK293; test: cells; conditions: Homo sapiens; remark: listed apart in the source
[15] = target: Tumor necrosis factor (Homo sapiens, UniProt P01375); test: analog potency on TNFa NF-kB signaling – cell-based, revised, SAR follow-up (AID 2337); type: functional
Tumor necrosis factor, sequence (P01375 whole entry): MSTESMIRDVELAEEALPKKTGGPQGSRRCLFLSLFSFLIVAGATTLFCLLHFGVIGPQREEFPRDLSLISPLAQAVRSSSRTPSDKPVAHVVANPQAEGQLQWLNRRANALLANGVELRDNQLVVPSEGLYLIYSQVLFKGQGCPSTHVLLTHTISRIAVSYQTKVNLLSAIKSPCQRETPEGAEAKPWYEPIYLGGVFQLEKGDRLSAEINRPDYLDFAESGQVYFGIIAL

[16] = tested on: HEK293; test: inhibition of NOD1-driven NF-kB reporter – cell-based, luminescence, uHTS, primary screen (AID 1578); type: functional; conditions: Homo sapiens
[17] = tested on: HEK293; test: cells; type: functional, cell-based; conditions: Homo sapiens
[18] = tested on: HEK293; test: cells; type: functional, cell-based; conditions: Homo sapiens; remark: listed apart in the source
[19] = tested on: HEK293; test: NOD2 signaling inhibitors in MDP-stimulated cells, cell-based, uHTS, luminescence (AID 2001); type: functional; conditions: Homo sapiens
[20] = tested on: HEK293; test: cells; type: functional, cell-based; conditions: Homo sapiens; remark: listed apart in the source
[21] = target: T4, Nucleotide-binding oligomerization domain-containing protein 2; test: inhibition of NOD2-driven NF-kB reporter – cell-based, luminescence, uHTS, HEK293 (AID 1566); type: functional

T1 sequence (P98170 whole entry): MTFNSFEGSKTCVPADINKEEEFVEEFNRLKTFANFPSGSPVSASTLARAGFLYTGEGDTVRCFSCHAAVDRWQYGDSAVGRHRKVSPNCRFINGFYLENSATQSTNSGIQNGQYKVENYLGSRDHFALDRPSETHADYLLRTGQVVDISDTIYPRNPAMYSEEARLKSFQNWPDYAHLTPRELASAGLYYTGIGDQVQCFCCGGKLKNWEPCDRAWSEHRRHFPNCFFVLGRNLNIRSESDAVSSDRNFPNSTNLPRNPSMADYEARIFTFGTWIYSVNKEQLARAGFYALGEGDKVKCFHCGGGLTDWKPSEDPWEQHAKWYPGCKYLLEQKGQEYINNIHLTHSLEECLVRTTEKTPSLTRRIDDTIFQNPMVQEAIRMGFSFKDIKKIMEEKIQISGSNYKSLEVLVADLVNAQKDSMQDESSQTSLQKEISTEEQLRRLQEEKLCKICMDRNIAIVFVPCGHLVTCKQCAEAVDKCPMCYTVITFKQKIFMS

IC50 [1]: > 100 µM (not active)
IC50 [2]: > 100 µM (inactive)
SMILES: COC(=O)c1ccc(C(=O)NC(=S)Nc2nc3c(s2)CCCC3)cc1

SMILES: CCS(=O)(=O)N1Cc2ccccc2CC1C(=O)NCC12CC3CC(CC(C3)C1)C2 (stereo not given)
AC50 [3]: 4.37 µM (active)
AC50 [4]: 19.8 µM (active)
AC50 [5]: 7.35 µM (active)
EC50 [6]: > 59.7 µM (inactive)
AC50 [7]: 2.86 µM (active)
EC50 [8]: > 59.7 µM (inactive)

IC50 [9]: > 79.4 µM (inactive)
IC50 [10]: > 79.4 µM (inactive)
IC50 [11]: > 79.4 µM (inactive)
SMILES: O=c1c(-c2ccccc2)c(O)c2c(n1-c1ccccc1)CCCC2

SMILES: O=C(Nc1nc2ccccc2n1Cc1ccccc1Cl)c1ccc(Cl)cc1
IC50 [12]: > 20 µM (inactive)
IC50 [13]: > 20 µM (inactive)
IC50 [14]: > 20 µM (inactive)
IC50 [15]: > 20 µM (inactive)

SMILES: O=C(c1ccc(S(=O)(=O)N2CCCCC2)cc1)N1CCN(CCN2C(=O)c3cccc4cccc(c34)C2=O)CC1
EC50 [16]: > 20 µM (inactive)
IC50 [12]: 6.79 µM (active)
IC50 [17]: > 20 µM (inactive)
IC50 [18]: > 20 µM (inactive)
IC50 [19]: 8.84 µM (active)
IC50 [13]: 6.08 µM (active)
IC50 [14]: > 20 µM (inactive)
IC50 [15]: 5.55 µM (active)
IC50 [20]: 6.57 µM (active)
EC50 [21]: > 20 µM (inactive)
